This passage reports IC50 results from patent publication EP4707277A1, “NOVEL HETEROCYCLIC AMINE DERIVATIVES AND PHARMACEUTICAL COMPOSITION COMPRISING SAME” (Daewoong Pharmaceutical Co., Ltd., priority 2023, dated 2024).

One assay addresses T1, BTK (Homo sapiens, UniProt Q06187).
T1 construct: purchased Signalchem B10-10H
Briefly: Inhibitory activity against BTK, ADP-Glo Kinase system (Promega). Type of assay: biochemical. The protocol:
(§1) Inhibitory activities against BTK and ITK were measured for the compounds prepared in the above Examples as follows.
(§2) The inhibitory activities against BTK and ITK were evaluated using 'ADP-Glo™ Kinase system' (Promega Corporation). In the case of this evaluation method, activation was measured by quantifying the amount of ADP produced during the kinase reaction, which was utilized to measure the inhibitory activities against BTK and ITK.
(§3) Specifically, the inhibitory activities against BTK and ITK were measured using BTK kinase (Signalchem, B10-10H), ITK kinase (Signalchem, I13-11G-10), and ADP-Glo kinase assay kit (Promega, V9102). Recombinant purified human BTK and ITK were diluted with 1 x kinase reaction buffer (40 mM Tris-Cl, pH 7.5, 20 mM MgCl2, 0.1 mg/mL BSA, 2 mM MnCl2 and 50 uM DTT) and added to a 96 well plate (ITK: final concentration of 4 ng per reaction/BTK: final concentration of 10 ng per reaction). The compounds prepared in the previous Examples were treated so as to be finally a 1% DMSO aqueous solution, and a substrate cocktail containing ATP (1mM or Km ATP (BTK: 10 uM /ITK: 25uM)) and 0.2 ug/ul of Poly (Glu4,Tyr1) peptide (BTK and ITK final concentration) in the total 25 uL reactants was added to a 96-well plate to initiate enzymatic reaction. After incubation (30°C) for 1 hour, equivalent volume (25 uL per reaction) of ADP Glo was added, and incubated (30°C) for 40 minutes at room temperature. Then, a kinase detection reagent (45 uL per reaction) was added, and incubated (30°C) for 30 minutes at room temperature. The kinase activity was measured by chemiluminescence according to the instructions of ADP Glo kinase assay kit, and the inhibitory activity of the compounds according to the present disclosure was calculated. For the analysis of the results of each compound, Microsoft Excel was used, and IC50 values were calculated by GraphPad Prism software.

Another assay addresses T2, ITK (Homo sapiens, UniProt Q08881).
T2 construct: purchased Signalchem I13-11G-10
T2 sequence (Q08881 1-620): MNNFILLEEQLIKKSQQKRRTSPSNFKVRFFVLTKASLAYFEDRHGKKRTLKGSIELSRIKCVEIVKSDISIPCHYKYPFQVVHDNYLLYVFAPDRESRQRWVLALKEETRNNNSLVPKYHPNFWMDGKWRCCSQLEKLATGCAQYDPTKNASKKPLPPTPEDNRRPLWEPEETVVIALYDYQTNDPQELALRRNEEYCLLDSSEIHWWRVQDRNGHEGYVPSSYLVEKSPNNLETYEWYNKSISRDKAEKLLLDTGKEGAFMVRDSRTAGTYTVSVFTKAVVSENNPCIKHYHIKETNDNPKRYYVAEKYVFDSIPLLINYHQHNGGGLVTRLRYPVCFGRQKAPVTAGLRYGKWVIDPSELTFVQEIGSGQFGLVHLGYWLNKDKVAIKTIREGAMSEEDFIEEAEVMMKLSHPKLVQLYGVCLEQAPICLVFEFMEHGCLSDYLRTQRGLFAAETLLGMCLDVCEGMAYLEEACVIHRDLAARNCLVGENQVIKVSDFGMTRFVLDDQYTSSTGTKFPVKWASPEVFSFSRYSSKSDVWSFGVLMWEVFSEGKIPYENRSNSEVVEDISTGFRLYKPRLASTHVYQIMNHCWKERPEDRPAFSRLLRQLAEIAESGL
Briefly: Inhibitory activity against ITK, ADP-Glo Kinase system (Promega). In kind it is biochemical. How it is done: as §1, §2, §3
Background: In ADP-Glo the light output rises with the ADP produced.

Where [1] appears, read: 1mM ATP, read-out: BTK IC50(nM) 1mM ATP.
Where [2] appears, read: 1mM ATP, read-out: ITK IC50(nM) 1mM ATP.
Setting [3] is: Km ATP (BTK: 10 uM), read-out: BTK IC50(nM) Km ATP.
Setting [4] is: Km ATP (ITK: 25uM), read-out: ITK IC50(nM) Km ATP.

By IC50 is commonly meant the concentration needed to halve the response being measured.

Where two headings read alike, the source gives them in different places.

T1 sequence (Q06187 whole entry): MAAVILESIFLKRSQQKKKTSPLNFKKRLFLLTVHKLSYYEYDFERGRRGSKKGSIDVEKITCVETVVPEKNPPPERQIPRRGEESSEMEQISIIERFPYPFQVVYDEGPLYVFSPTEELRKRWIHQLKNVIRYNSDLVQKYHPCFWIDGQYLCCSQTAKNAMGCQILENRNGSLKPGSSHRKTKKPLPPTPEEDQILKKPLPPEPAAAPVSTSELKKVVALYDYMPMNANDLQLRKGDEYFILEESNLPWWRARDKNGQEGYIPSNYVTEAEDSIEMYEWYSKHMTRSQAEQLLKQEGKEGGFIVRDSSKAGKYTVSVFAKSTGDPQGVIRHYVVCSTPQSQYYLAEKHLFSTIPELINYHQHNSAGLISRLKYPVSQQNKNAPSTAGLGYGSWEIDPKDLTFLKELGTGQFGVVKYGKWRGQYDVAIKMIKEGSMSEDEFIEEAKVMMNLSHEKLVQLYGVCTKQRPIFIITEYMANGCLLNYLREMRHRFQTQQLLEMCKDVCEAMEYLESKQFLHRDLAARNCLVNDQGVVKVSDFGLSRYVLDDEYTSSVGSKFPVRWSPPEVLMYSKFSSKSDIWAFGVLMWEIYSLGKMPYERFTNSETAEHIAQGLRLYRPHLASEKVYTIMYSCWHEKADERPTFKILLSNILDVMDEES

As for `C=CC(=O)N1C[C@H](F)[C@H](Oc2nc(Nc3ncc(C)s3)cc3c2ccn3C)C1` [Example 131, 1-((3S,4R)-3-fluoro-4-((1-methyl-6-((5-methylthiazol-2-yl)amino)-1H-pyrrolo[3,2-c]pyridin-4-yl)oxy)pyrrolidin-1-yl)prop-2-en-1-one], the IC50 at BTK (setting [1]) and on ITK (setting [2]) was not above 20 nM in each case.

In the case of `C=CC(=O)N1CCC[C@@H]1COc1nc(Nc2ncc(C)s2)cc2c1ccn2CC(F)(F)F` [Example 207, (R)-1-(2-(((6-((5-methylthiazol-2-yl)amino)-1-(2,2,2-trifluoroethyl)-1H-pyrrolo[3,2-c]pyridin-4-yl)oxy)methyl)pyrrolidin-1-yl)prop-2-en-1-one], the IC50 on BTK (setting [1]) and at ITK (setting [2]) was not above 20 nM in each case.

Take `C=CC(=O)N1C[C@H](F)[C@H](Oc2nc(Nc3ncc(C)s3)cc3c2ccn3CC(C)C)C1` [Example 105, 1-((3S,4R)-3-fluoro-4-((1-isobutyl-6-((5-methylthiazol-2-yl)amino)-1H-pyrrolo[3,2-c]pyridin-4-yl)oxy)pyrrolidin-1-yl)prop-2-en-1-one]: the IC50 on BTK (setting [1]) and at ITK (setting [2]) was not above 20 nM throughout.

Take `C=C(F)C(=O)N1CC[C@H](Oc2nc(Nc3ncc(C)s3)cc3c2ccn3CC(C)C)C1` [Example 224, (S)-2-fluoro-1-(3-((1-isobutyl-6-((5-methylthiazol-2-yl)amino)-1H-pyrrolo[3,2-c]pyridin-4-yl)oxy)pyrrolidin-1-yl)prop-2-en-1-one]: the IC50 on BTK (setting [1]) and at ITK (setting [2]) was more than 500 nM in each case.

Take `C=CC(=O)N1CC=C(c2nc(Nc3ncc(C)s3)cc3c2ccn3CC2(C(F)(F)F)CC2)CC1` [Example 17, 1-(4-(6-((5-methylthiazol-2-yl)amino)-1-((1-(trifluoromethyl)cyclopropyl)methyl)-1H-pyrrolo[3,2-c]pyridin-4-yl)-3,6-dihydropyridin-1(2H)-yl)prop-2-en-1-one]: the IC50 at BTK (setting [3]) and on ITK (setting [4]) was not above 20 nM each time.

For `C=CC(=O)N1CC=C(c2nc(Nc3cc(F)ccn3)cc3c2ccn3C(C)C)CC1` [Example 47, 1-(4-(6-((4-fluoropyridin-2-yl)amino)-1-isopropyl-1H-pyrrolo[3,2-c]pyridin-4-yl)-3,6-dihydropyridin-1(2H)-yl)prop-2-en-1-one], the IC50 at BTK (setting [1]) is not above 20 nM; at ITK (setting [2]) it was 20 to 100 nM.

On to `C=CC(=O)N1CC[C@H](Oc2nc(Nc3ncc(C)s3)cc3c2ccn3CCF)C1` [Example 188, (S)-1-(3-((1-(2-fluoroethyl)-6-((5-methylthiazol-2-yl)amino)-1H-pyrrolo[3,2-c]pyridin-4-yl)oxy)pyrrolidin-1-yl)prop-2-en-1-one], for which the IC50 at BTK (setting [1]) and on ITK (setting [2]) was not above 20 nM in each case.

Regarding `C=CC(=O)N1CC[C@H](Oc2nc(Nc3cc(C)ncn3)cc3c2ccn3C(C)C)C1` [Example 101, (S)-1-(3-((1-isopropyl-6-((6-methylpyrimidin-4-yl)amino)-1H-pyrrolo[3,2-c]pyridin-4-yl)oxy)pyrrolidin-1-yl)prop-2-en-1-one], the IC50 at BTK (setting [1]) was not above 20 nM; at ITK (setting [2]), 20 to 100 nM.

In the case of `C=CC(=O)N1CC=C(c2nc(Nc3ncc(C)s3)cc3c2ccn3CC(F)F)C(C)C1` (centres unmarked) [Example 25, 1-(4-(1-(2,2-difluoroethyl)-6-((5-methylthiazol-2-yl)amino)-1H-pyrrolo[3,2-c]pyridin-4-yl)-3-methyl-3,6-dihydropyridin-1(2H)-yl)prop-2-en-1-one], the IC50 on BTK (setting [1]) and at ITK (setting [2]) was more than 500 nM each time.

Take `C=CC(=O)N1C[C@@H](C)[C@H](Oc2nc(Nc3ncc(C)s3)cc3c2ccn3C(C)C)C1` (racemic) [Example 92, rac-1-((3S,4R)-3-((1-isopropyl-6-((5-methylthiazol-2-yl)amino)-1H-pyrrolo[3,2-c]pyridin-4-yl)oxy)-4-methylpyrrolidin-1-yl)prop-2-en-1-one]: the half-inhibitory concentration (IC50) on BTK (setting [1]) and at ITK (setting [2]) was not above 20 nM throughout.

For `C=CC(=O)N1C[C@H](F)[C@H](Oc2nc(Nc3ncc(C)s3)cc3c2ccn3C(C)C)C1` [Example 83, 1-((3S,4R)-3-fluoro-4-((1-isopropyl-6-((5-methylthiazol-2-yl)amino)-1H-pyrrolo[3,2-c]pyridin-4-yl)oxy)pyrrolidin-1-yl)prop-2-en-1-one], the IC50 on BTK (setting [1]) and on ITK (setting [2]) was not above 20 nM in each case.

Regarding `C=CC(=O)Nc1ccc(F)c(-c2nc(Nc3ncc(C)s3)cc3c2ccn3CC2CC2)c1` [Example 61, N-(3-(1-(cyclopropylmethyl)-6-((5-methylthiazol-2-yl)amino)-1H-pyrrolo[3,2-c]pyridin-4-yl)-4-fluorophenyl)acrylamide], the IC50 on BTK (setting [3]) and at ITK (setting [4]) was not above 20 nM throughout.

As to `C=CC(=O)N1CC=C(c2nc(Nc3ncc(C)s3)cc3c2ccn3C(C)(C)C#N)CC1` [Example 22, 2-(4-(1-acryloyl-1,2,3,6-tetrahydropyridin-4-yl)-6-((5-methylthiazol-2-yl)amino)-1H-pyrrolo[3,2-c]pyridin-1-yl)-2-methylpropanenitrile], the IC50 on BTK (setting [3]) and at ITK (setting [4]) was not above 20 nM in each case.

Regarding `C=CC(=O)N1C2C=C(c3nc(Nc4ncc(C)s4)cc4c3ccn4C3CC3(F)F)CC1CC2` (centres unmarked) [Example 31, 1-(3-(1-(2,2-difluorocyclopropyl)-6-((5-methylthiazol-2-yl)amino)-1H-pyrrolo[3,2-c]pyridin-4-yl)-8-azabicyclo[3.2.1]oct-2-en-8-yl)prop-2-en-1-one], the IC50 on BTK (setting [3]) and at ITK (setting [4]) was not above 20 nM in each case.

As to `C=CC(=O)N1CC[C@@H]1COc1nc(Nc2ncc(C)s2)cc2c1ccn2CC(F)F` [Example 209, (R)-1-(2-(((1-(2,2-difluoroethyl)-6-((5-methylthiazol-2-yl)amino)-1H-pyrrolo[3,2-c]pyridin-4-yl)oxy)methyl)azetidin-1-yl)prop-2-en-1-one], the IC50 on BTK (setting [1]) and on ITK (setting [2]) was not above 20 nM in each case.

As to `C=CC(=O)N1CC[C@@H](Oc2nc(Nc3ncc(C)s3)cc3c2ccn3C(C)C)C1` [Example 162, (R)-1-(3-((1-isopropyl-6-((5-methylthiazol-2-yl)amino)-1H-pyrrolo[3,2-c]pyridin-4-yl)oxy)pyrrolidin-1-yl)prop-2-en-1-one], the IC50 at BTK (setting [1]) and on ITK (setting [2]) was more than 500 nM in each case.

For the compound `C=CC(=O)N1CC[C@H](Oc2nc(Nc3ncc(C)s3)cc3c2ccn3CC2CCCCC2)C1` [Example 129, (S)-1-(3-((1-(cyclohexylmethyl)-6-((5-methylthiazol-2-yl)amino)-1H-pyrrolo[3,2-c]pyridin-4-yl)oxy)pyrrolidin-1-yl)prop-2-en-1-one], the IC50 at BTK (setting [1]) and at ITK (setting [2]) was not above 20 nM in each case.

Regarding `C=CC(=O)N1CC[C@H](Oc2nc(Nc3ncc(C)s3)cc3c2ccn3CC2(C(F)(F)F)CC2)C1` (stereo in doubt) [Example 102, (S)-1-(3-((6-((5-methylthiazol-2-yl)amino)-1-((1-(trifluoromethyl)cyclopropyl)methyl)-1H-pyrrolo[3,2-c]pyridin-4-yl)oxy)pyrrolidin-1-yl)prop-2-en-1-one], the IC50 at BTK (setting [1]) and on ITK (setting [2]) was not above 20 nM in each case.

With `C=CC(=O)N1CC[C@H](Oc2nc(Nc3cc[nH]n3)cc3c2ccn3C(C)C)C1` [Example 192, (S)-1-(3-((6-((1H-pyrazol-3-yl)amino)-1-isopropyl-1H-pyrrolo[3,2-c]pyridin-4-yl)oxy)pyrrolidin-1-yl)prop-2-en-1-one], the IC50 on BTK (setting [1]) is not above 20 nM; at ITK (setting [2]) it was 100 to 500 nM.
